From US12589099B2 (priority 2021, dated 2026)

Columns and labels:
[1] = system: NeuN positive cells in DG, CA1, CA3 and cortex; experiment: NeuN IHC, neuronal cell loss 35 days post-TBI; assay type: in vivo, male Wistar rats; conditions: 4.5 mg/kg IN twice daily; 35 days following TBI
Text: Young adult (2-3 months) male Wistar rats were subjected to a moderate traumatic brain injury (TBI) induced by controlled cortical impact (CCI). Animal models of TBI including the CCI model and functional tests have been described in detail in peer reviewed publications (Xiong et al., 2013, Nat Rev Neurosci.; Zhang et al., 2016, J Neurosurg.; Zhang et al., 2016, Neurochem Int.; Zhang et al., 2021, J Neurotrauma). Injury consisted of a single impact at 4.0 m/sec, 2.5 mm deformation to the left parietal cortex. In addition, a group of animals was left healthy/not injured to serve as a healthy control.
The substance used in this study was ALPHA-1062 at 4.5 mg/kg. As control treatment (vehicle) purified water was administered intranasally (IN). […]
Histological assessment was performed including quantitative image analysis protocols; followed by statistical analysis of the data. […]
For cell counting and quantitation NeuN+ cells were examined in the ipsilateral cortex, DG, CA1, and CA3 regions of the ipsilateral hippocampus. […] The number of BrdU+ cells (red-fluorophore) and NeuN (green-fluorophore)/BrdU-colabeled cells (yellow after merge) were counted. […] The immune-positive cells were determined and divided by the measured areas and presented as numbers per square mm. […]

[2] = system: moderate traumatic brain injury (TBI) induced by controlled cortical impact (CCI); experiment: Novel object recognition (NOR) test after TBI; assay type: in vivo, male Wistar rats
Procedure: FIG. 2: The figure illustrates functional tests that are carried out on healthy (sham surgery) no treatment, vehicle treated and ALPHA-1062 treated rats to assess sensorimotor and cognitive function after TBI. Sensimotor function tests. a) The figure depicts tests to assess the modified neurological severity score (mNSS). […] The animal is required to balance over a grid and the frequency of steps missing the grid are counted. This test assesses the functionality of the injured parietal cortex of the rat's brain. c) The adhesive removal test consists of applying adhesive tape on each forepaw of the animal and measuring the time-to-contact and the time-to-remove them. This behavior requires correct paw and mouth sensitivity (time-to-contact) and correct dexterity (time-to-remove). Cognitive function tests: a) This picture illustrates the Morris water maze that comprises that a rat is placed in a large circular pool (picture on the left) and is required to find an invisible platform that allows it to escape the water by using various visuo-spatial cues. This test is used to study spatial learning and memory and assesses hippocampal and select cortical brain region function. Usually, the path of the rat through the pool is tracked (picture on the right) and the time spend in the proximity of the platform as well as the time needed until the platform is found by the rat are measured. b) For the new/novel object recognition (NOR) test, after a habituation time in the test space (picture on far left) rats are given the opportunity to explore two identical objects (A) for a predetermined period of time (picture in the middle). After a delay, the animals are then presented with two objects to explore, one of which is the same as in the first exploration trial (A), the other a new object (B) (picture on the right). […]

COc1ccc2c3c1O[C@H]1C[C@@H](OC(=O)c4ccccc4)C=C[C@@]31CCN(C)C2 [ALPHA-1062, (4aS,6R,8aS)-5,6,9,10,11,12-hexahydro-3-methoxy-11-methyl-4aH-[1]benzofuro[3a,3,2-ef][2]benzazepin-6-ol benzoate]
neuron numbers (NeuN) in DG, CA1, CA3 and cortex, compared to vehicle [1]: reduced loss of neurons
neuronal cell numbers (NeuN) compared to sham surgery animals [1]: did not differ significantly
NOR, percentage of time spent exploring novel object (B) vs familiar object ([2]; 4.5 mg/kg IN twice daily, 5 weeks after TBI): statistically significant preference for the novel object
Novel Object Recognition, performance over SHAM ([2]; rats after TBI, compared to healthy sham animals): equivalent to
Novel Object Recognition, performance over VEHICLE ([2]; rats after TBI, compared to vehicle treatment): superior
